Measured values as given in patent publication US7998988B2, “Biphenyl compounds useful in the treatment or prevention of cardiovascular disorders” (Bayer Schering Pharma Aktiengellschaft, priority 2005, dated 2011).
pIC50: −log10 of the molar value.

Legend:
[1] = biological target: T1, heme-free recombinant soluble guanylate cyclase (sGC) (Rattus norvegicus, UniProt P20595); test: Stimulation of recombinant soluble guanylate cyclase (sGC) in vitro, heme-free; assay type: biochemical; conditions: heme-free sGC (Tween 20)
T1 construct: made in house
T1 sequence (P20595 1-619): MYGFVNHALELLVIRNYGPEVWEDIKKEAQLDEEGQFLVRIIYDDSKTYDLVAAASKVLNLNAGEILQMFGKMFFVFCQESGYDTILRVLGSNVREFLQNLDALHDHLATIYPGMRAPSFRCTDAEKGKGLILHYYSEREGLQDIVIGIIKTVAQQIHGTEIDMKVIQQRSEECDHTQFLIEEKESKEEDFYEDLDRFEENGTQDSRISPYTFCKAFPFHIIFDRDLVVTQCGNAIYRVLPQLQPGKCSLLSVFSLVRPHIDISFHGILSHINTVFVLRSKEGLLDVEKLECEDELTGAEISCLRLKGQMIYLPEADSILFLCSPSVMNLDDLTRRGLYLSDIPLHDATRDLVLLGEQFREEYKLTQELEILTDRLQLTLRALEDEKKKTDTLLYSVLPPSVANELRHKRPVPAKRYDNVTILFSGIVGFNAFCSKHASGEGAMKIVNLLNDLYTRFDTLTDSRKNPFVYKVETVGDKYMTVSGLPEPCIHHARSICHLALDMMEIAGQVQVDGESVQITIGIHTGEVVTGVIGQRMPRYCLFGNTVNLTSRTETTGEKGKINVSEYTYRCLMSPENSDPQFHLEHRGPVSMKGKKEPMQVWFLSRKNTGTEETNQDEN
T1 sequence (P19686 1-690 partner): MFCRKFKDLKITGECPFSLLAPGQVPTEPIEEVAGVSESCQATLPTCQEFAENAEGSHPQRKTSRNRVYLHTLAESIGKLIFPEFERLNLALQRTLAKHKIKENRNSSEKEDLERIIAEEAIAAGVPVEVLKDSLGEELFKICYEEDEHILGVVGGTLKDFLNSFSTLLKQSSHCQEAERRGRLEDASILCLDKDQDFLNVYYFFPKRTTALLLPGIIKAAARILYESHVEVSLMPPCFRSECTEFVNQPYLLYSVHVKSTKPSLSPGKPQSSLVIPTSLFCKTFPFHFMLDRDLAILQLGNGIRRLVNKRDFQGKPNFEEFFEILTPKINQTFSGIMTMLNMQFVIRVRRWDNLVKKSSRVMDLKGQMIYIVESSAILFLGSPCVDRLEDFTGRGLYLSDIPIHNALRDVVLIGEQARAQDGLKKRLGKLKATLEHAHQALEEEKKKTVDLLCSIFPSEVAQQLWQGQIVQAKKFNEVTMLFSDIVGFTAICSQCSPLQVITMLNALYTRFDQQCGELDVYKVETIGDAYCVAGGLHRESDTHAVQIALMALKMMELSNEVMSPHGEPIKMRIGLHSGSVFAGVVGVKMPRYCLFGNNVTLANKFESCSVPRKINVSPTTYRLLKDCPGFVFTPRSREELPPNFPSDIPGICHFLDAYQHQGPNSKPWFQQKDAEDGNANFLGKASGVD
Description: Investigations on the stimulation of recombinant soluble guanylate cyclase (sGC) by the compounds according to the invention with and without sodium nitroprusside, and with and without the heme-dependent sGC inhibitor 1H-1,2,4-oxadiazole-(4,3a)-quinoxalin-1-one (ODQ) are carried out by the method described in detail in the following reference: M. Hoenicka, E. M. Becker, H. Apeler, T. Sirichoke, H. Schroeder, R. Gerzer and J.-P. Stasch, “Purified soluble guanylyl cyclase expressed in a baculovirus/Sf9 system: Stimulation by YC-1, nitric oxide, and […]”, J. Mol. Med. 77 (1999), 14-23. The heme-free guanylate cyclase is obtained by adding Tween 20 to the sample buffer (0.5% in the final concentration).
(§1) The activation of sGC by a test substance is reported as n-fold stimulation of the basal activity.

saphenous artery rings = test: Vasorelaxant effect in vitro (phenylephrine-contracted artery rings); assay type: cell-based; conditions: rabbit saphenous artery rings, contraction induced by phenylephrine
Description: Rabbits are anesthetized and sacrificed by intravenous injection of thiopental sodium (about 50 mg/kg) and exsanguinated. The saphenous artery is removed and divided into rings 3 mm wide. The rings are mounted singly on in each case a pair of triangular hooks open at the end and made of 0.3 mm-thick special wire (Remanium®). Each ring is placed under an initial tension in 5 ml organ baths with Krebs-Henseleit solution which is at 37° C., is gassed with 95% 02/5% CO2 and has the following composition: NaCl 119 mM; KCl 4.8 mM; CaCl2×2H2O 1 mM; MgSO4×7 H2O 1.4 mM; KH2PO4 1.2 mM; NaHCO3 25 mM; glucose 10 mM; bovine serum albumin 0.001%. The force of contraction is detected with Statham UC2 cells, amplified and digitized via A/D converters (DAS-1802 HC, Keithley Instruments, Munich) and recorded in parallel on chart recorders. Contractions are induced by addition of phenylephrine.
After several (generally 4) control cycles, the substance to be investigated is added in each further run in increasing dosage, and the height of the contraction achieved under the influence of the test substance is compared with the height of the contraction reached in the last preceding run. The concentration necessary to reduce the contraction reached in the preceding control by 50% is calculated from this (IC50). The standard application volume is 5 μl. The proportion of DMSO in the bath solution corresponds to 0.1%.

[2] = biological target: T2, heme-containing recombinant soluble guanylate cyclase (sGC) (Rattus norvegicus, UniProt P20595); test: Stimulation of recombinant soluble guanylate cyclase (sGC) in vitro, heme-containing; assay type: biochemical
T2 construct: made in house
T2 sequence (P20595 1-619): T1 sequence (P20595 1-619)
T2 sequence (P19686 1-690 partner): T1 sequence (P19686 1-690 partner)
Description: Hoenicka, E. M. Becker, H. Apeler, T. Sirichoke, H. Schroeder, R. Gerzer and J.-P. Stasch, “Purified soluble guanylyl cyclase expressed in a baculovirus/Sf9 system: Stimulation by YC-1, nitric oxide, and carbon oxide”, J. Mol. Med. 77 (1999), 14-23. The heme-free guanylate cyclase is obtained by adding Tween 20 to the sample buffer (0.5% in the final concentration).
as §1

For `O=C(O)c1ccc(CCC(/C=C/c2ccccc2OCc2ccc(-c3ccc(C(F)(F)F)cc3)cc2)Cc2ccc(-c3noc(=O)[nH]3)cc2)cc1` (single isomer, unassigned) [Example 55, E-4-{3-[4-(5-Oxo-4,5-dihydro-[1,2,4]oxadiazol-3-yl)benzyl]-5-[2-(4′-trifluoromethylbiphenyl-4-ylmethoxy)phenyl]pent-4-enyl}benzoic acid], the “Stimulation (n-fold) of heme-free sGC, Basal” value ([1]; 0.001 μM test substance) was 3.7 n-fold, the “Stimulation (n-fold) of heme-free sGC, Basal” value ([1]; 0.01 μM test substance) was 24.0 n-fold and the “Stimulation (n-fold) of heme-free sGC, Basal” value ([1]; 0.1 μM test substance) was 98.1 n-fold. For the same molecule, the “Stimulation (n-fold) of heme-free sGC, Basal” value ([1]; 1 μM test substance) was 132.6 n-fold, the “Stimulation (n-fold) of heme-free sGC, Basal” value ([1]; 10 μM test substance) was 137.9 n-fold and the pIC50 (saphenous artery rings) was 6.84. The “Stimulation (n-fold) of sGC, +0.01 μM DEA/NO” value ([2]; 0.001 μM test substance) was 10.6 n-fold, the “Stimulation (n-fold) of sGC, +0.01 μM DEA/NO” value ([2]; 0.01 μM test substance) was 13.0 n-fold and the “Stimulation (n-fold) of sGC, +0.01 μM DEA/NO” value ([2]; 0.1 μM test substance) was 25.5 n-fold. For the same molecule, the “Stimulation (n-fold) of sGC, +0.01 μM DEA/NO” value ([2]; 1 μM test substance) was 35.4 n-fold, the “Stimulation (n-fold) of sGC, +0.01 μM DEA/NO” value ([2]; 10 μM test substance) was 42.5 n-fold and the “Stimulation (n-fold) of sGC, +0.1 μM DEA/NO” value ([2]; 0.001 μM test substance) was 50.3 n-fold. For the same molecule, the “Stimulation (n-fold) of sGC, +0.1 μM DEA/NO” value ([2]; 0.01 μM test substance) was 53.4 n-fold, the “Stimulation (n-fold) of sGC, +0.1 μM DEA/NO” value ([2]; 0.1 μM test substance) was 66.5 n-fold and the “Stimulation (n-fold) of sGC, +0.1 μM DEA/NO” value ([2]; 1 μM test substance) was 75.1 n-fold. For the same molecule, the “Stimulation (n-fold) of sGC, +0.1 μM DEA/NO” value ([2]; 10 μM test substance) was 81.5 n-fold, the “Stimulation (n-fold) of sGC, +10 μM ODQ” value ([2]; 0.01 μM test substance) was 12.7 n-fold and the “Stimulation (n-fold) of sGC, +10 μM ODQ” value ([2]; 0.1 μM test substance) was 66.3 n-fold. The “Stimulation (n-fold) of sGC, +10 μM ODQ” value ([2]; 1 μM test substance) was 107.4 n-fold, the “Stimulation (n-fold) of sGC, +10 μM ODQ” value ([2]; 10 μM test substance) was 105.5 n-fold and the “Stimulation (n-fold) of sGC, Basal” value ([2]; 0.001 μM test substance) was 1.4 n-fold. For the same molecule, the “Stimulation (n-fold) of sGC, Basal” value ([2]; 0.01 μM test substance) was 3.1 n-fold, the “Stimulation (n-fold) of sGC, Basal” value ([2]; 0.1 μM test substance) was 15.5 n-fold and the “Stimulation (n-fold) of sGC, Basal” value ([2]; 1 μM test substance) was 25.4 n-fold. For the same molecule, the “Stimulation (n-fold) of sGC, Basal” value ([2]; 10 μM test substance) was 33.0 n-fold and the “Synergism with the NO donor DEA/NO on sGC stimulation” value ([2]; combination with DEA/NO) was “no synergistic effect”.
